Measurements from article PMC7343282, “Tissue Distribution of Several Series of Cationic Surfactants in Rainbow Trout (Oncorhynchus mykiss) Following Exposure via Water” (Environmental Science & Technology, 2020).

Columns and labels:
[1] = Table S2; cited from earlier work
[2] = tested on: rainbow trout (Oncorhynchus mykiss); experiment: Contribution of tissues to fish body burden; type: in vivo; conditions: for Contribution of Blood to the fish's body burden / Contribution of Gills to the fish's body burden / Contribution of Liver to the fish's body burden / Contribution of Mucus to the fish's body burden / Contribution of Other tissue (all apart from blood, liver, gills and skin; muscle concentration assumed) to body burden / Contribution of Skin to the fish's body burden: fraction; for % contribution to body burden, Gills / % contribution to body burden, Mucus / % contribution to body burden, Liver / % contribution to body burden, Skin / % contribution to body burden, Muscle: mean across fish, Figure 1; for % contribution to body burden, Liver / % contribution to body burden, Skin / % contribution to body burden, Muscle: Q10, Q14 maximum estimates; for % contribution to body burden, Muscle: includes all tissues not specifically analyzed
Excerpt: To calculate the quantity of the test chemical in the different tissues, the amount of each tissue in the fish was estimated and multiplied by the concentration in that tissue. The test chemical quantities in the different tissues were then summed to give the body burden in each fish. The total weight of the fish and the weight of the liver and gills were available from the dissection (Table S16). For skin and mucus, the estimated outer surface area of the fish was used. We note that the distinction between mucus and skin is an operational one determined by the extraction method; mucus can be viewed as a more readily extracted fraction of the test chemical residues at the fish surface. The volume of blood was taken as 0.0495 mL g^–1 fish.[30] The remaining tissue (difference between the weight of the whole fish and the weight of liver, gills, skin, and blood) was assumed to have the concentration measured in the muscle. The contribution of the different tissues to the body burden is given for each fish in Table S17, and the average contribution across all fish is plotted in Figure 1. All of the tissues, with the exception of blood, contribute at least 10% of the body burden for at least half of the test chemicals. There is no consistent negative correlation between the fraction of chemical associated with blood, muscle, and liver (tissues where the residue originates entirely from systemic uptake) and alkyl chain length (a measure of hydrophobicity). Thus, although adsorption to fish surfaces appears to play a significant role, its contribution to body burden cannot be simply predicted from surfactant hydrophobicity. In the following, we examine uptake in individual tissues.

Structure (SMILES): CCCCCCCCCCCCCCCCN [P16, hexadecylamine]
- pKa [1]: 10.5
- Contribution of Blood to the fish's body burden ([2]; Fish #1): 0.013
- Contribution of Gills to the fish's body burden ([2]; Fish #1): 0.62
- Contribution of Liver to the fish's body burden ([2]; Fish #1): 0.11
- Contribution of Mucus to the fish's body burden ([2]; Fish #1): 0.04
- Contribution of Other tissue (all apart from blood, liver, gills and skin; muscle concentration assumed) to body burden ([2]; Fish #1): 0.14
- Contribution of Skin to the fish's body burden ([2]; Fish #1): 0.08
- Contribution of Blood to the fish's body burden ([2]; Fish #2): 0.011
- Contribution of Gills to the fish's body burden ([2]; Fish #2): 0.57
- Contribution of Liver to the fish's body burden ([2]; Fish #2): 0.14
- Contribution of Mucus to the fish's body burden ([2]; Fish #2): 0.03
- Contribution of Other tissue (all apart from blood, liver, gills and skin; muscle concentration assumed) to body burden ([2]; Fish #2): 0.13
- Contribution of Skin to the fish's body burden ([2]; Fish #2): 0.12
- Contribution of Blood to the fish's body burden ([2]; Fish #3): 0.012
- Contribution of Liver to the fish's body burden ([2]; Fish #3): 0.12
- Contribution of Mucus to the fish's body burden ([2]; Fish #3): 0.04
- Contribution of Other tissue (all apart from blood, liver, gills and skin; muscle concentration assumed) to body burden ([2]; Fish #3): 0.15
- Contribution of Skin to the fish's body burden ([2]; Fish #3): 0.10
- Contribution of Blood to the fish's body burden ([2]; Fish #4): 0.010
- Contribution of Gills to the fish's body burden ([2]; Fish #4): 0.50
- Contribution of Liver to the fish's body burden ([2]; Fish #4): 0.15
- Contribution of Mucus to the fish's body burden ([2]; Fish #4): 0.04
- Contribution of Other tissue (all apart from blood, liver, gills and skin; muscle concentration assumed) to body burden ([2]; Fish #4): 0.18
- Contribution of Skin to the fish's body burden ([2]; Fish #4): 0.12
- Contribution of Blood to the fish's body burden ([2]; Fish #5): 0.008
- Contribution of Gills to the fish's body burden ([2]; Fish #5): 0.65
- Contribution of Liver to the fish's body burden ([2]; Fish #5): 0.08
- Contribution of Mucus to the fish's body burden ([2]; Fish #5): 0.05
- Contribution of Other tissue (all apart from blood, liver, gills and skin; muscle concentration assumed) to body burden ([2]; Fish #5): 0.11
- Contribution of Skin to the fish's body burden ([2]; Fish #5): 0.10
- Contribution of Blood to the fish's body burden ([2]; Fish #6): 0.016
- Contribution of Gills to the fish's body burden ([2]; Fish #6): 0.58
- Contribution of Liver to the fish's body burden ([2]; Fish #6): 0.11
- Contribution of Mucus to the fish's body burden ([2]; Fish #6): 0.06
- Contribution of Other tissue (all apart from blood, liver, gills and skin; muscle concentration assumed) to body burden ([2]; Fish #6): 0.11
- Contribution of Skin to the fish's body burden ([2]; Fish #6): 0.13
- Contribution of Blood to the fish's body burden ([2]; Mean): 0.012
- Contribution of Gills to the fish's body burden ([2]; Mean): 0.58
- Contribution of Liver to the fish's body burden ([2]; Mean): 0.12
- Contribution of Mucus to the fish's body burden ([2]; Mean): 0.04
- Contribution of Other tissue (all apart from blood, liver, gills and skin; muscle concentration assumed) to body burden ([2]; Mean): 0.13
- Contribution of Skin to the fish's body burden ([2]; Mean): 0.11
- Share of body burden present in gills and mucus ([2]; in vivo): at least 50%
- % contribution to body burden, Gills [2]: 58%
- % contribution to body burden, Mucus [2]: 4%
- % contribution to body burden, Liver [2]: 12%
- % contribution to body burden, Skin [2]: 11%
- % contribution to body burden, Muscle [2]: 13%

Structure (SMILES): CCCCCCCCCN(C)C [T9, N,N-dimethylnonylamine]
- pKa [1]: 9.5
- Contribution of Blood to the fish's body burden ([2]; Fish #1): 0.045
- Contribution of Gills to the fish's body burden ([2]; Fish #1): 0.11
- Contribution of Liver to the fish's body burden ([2]; Fish #1): 0.08
- Contribution of Mucus to the fish's body burden ([2]; Fish #1): 0.12
- Contribution of Other tissue (all apart from blood, liver, gills and skin; muscle concentration assumed) to body burden ([2]; Fish #1): 0.35
- Contribution of Skin to the fish's body burden ([2]; Fish #1): 0.30
- Contribution of Blood to the fish's body burden ([2]; Fish #2): 0.059
- Contribution of Gills to the fish's body burden ([2]; Fish #2): 0.14
- Contribution of Liver to the fish's body burden ([2]; Fish #2): 0.08
- Contribution of Mucus to the fish's body burden ([2]; Fish #2): 0.12
- Contribution of Other tissue (all apart from blood, liver, gills and skin; muscle concentration assumed) to body burden ([2]; Fish #2): 0.39
- Contribution of Skin to the fish's body burden ([2]; Fish #2): 0.22
- Contribution of Blood to the fish's body burden ([2]; Fish #3): 0.075
- Contribution of Liver to the fish's body burden ([2]; Fish #3): 0.11
- Contribution of Mucus to the fish's body burden ([2]; Fish #3): 0.09
- Contribution of Other tissue (all apart from blood, liver, gills and skin; muscle concentration assumed) to body burden ([2]; Fish #3): 0.43
- Contribution of Skin to the fish's body burden ([2]; Fish #3): 0.17
- Contribution of Blood to the fish's body burden ([2]; Fish #4): 0.046
- Contribution of Gills to the fish's body burden ([2]; Fish #4): 0.15
- Contribution of Liver to the fish's body burden ([2]; Fish #4): 0.04
- Contribution of Mucus to the fish's body burden ([2]; Fish #4): 0.14
- Contribution of Other tissue (all apart from blood, liver, gills and skin; muscle concentration assumed) to body burden ([2]; Fish #4): 0.38
- Contribution of Skin to the fish's body burden ([2]; Fish #4): 0.24
- Contribution of Blood to the fish's body burden ([2]; Fish #5): 0.056
- Contribution of Gills to the fish's body burden ([2]; Fish #5): 0.14
- Contribution of Liver to the fish's body burden ([2]; Fish #5): 0.18
- Contribution of Mucus to the fish's body burden ([2]; Fish #5): 0.08
- Contribution of Other tissue (all apart from blood, liver, gills and skin; muscle concentration assumed) to body burden ([2]; Fish #5): 0.35
- Contribution of Skin to the fish's body burden ([2]; Fish #5): 0.19
- Contribution of Blood to the fish's body burden ([2]; Fish #6): 0.062
- Contribution of Gills to the fish's body burden ([2]; Fish #6): 0.11
- Contribution of Liver to the fish's body burden ([2]; Fish #6): 0.26
- Contribution of Mucus to the fish's body burden ([2]; Fish #6): 0.08
- Contribution of Other tissue (all apart from blood, liver, gills and skin; muscle concentration assumed) to body burden ([2]; Fish #6): 0.33
- Contribution of Skin to the fish's body burden ([2]; Fish #6): 0.17
- Contribution of Blood to the fish's body burden ([2]; Mean): 0.057
- Contribution of Gills to the fish's body burden ([2]; Mean): 0.13
- Contribution of Liver to the fish's body burden ([2]; Mean): 0.13
- Contribution of Mucus to the fish's body burden ([2]; Mean): 0.10
- Contribution of Other tissue (all apart from blood, liver, gills and skin; muscle concentration assumed) to body burden ([2]; Mean): 0.37
- Contribution of Skin to the fish's body burden ([2]; Mean): 0.21
- Share of body burden in interior tissues (blood, liver, and muscle) ([2]; in vivo): more than half
- % contribution to body burden, Gills [2]: 13%
- % contribution to body burden, Mucus [2]: 10%
- % contribution to body burden, Liver [2]: 13%
- % contribution to body burden, Skin [2]: 21%
- % contribution to body burden, Muscle [2]: 37%

Structure (SMILES): CCCCCCCCCCCCCN(C)C [T13, N,N-dimethyltridecylamine]
- pKa [1]: 9.5
- Contribution of Blood to the fish's body burden ([2]; Fish #1): 0.038
- Contribution of Gills to the fish's body burden ([2]; Fish #1): 0.28
- Contribution of Liver to the fish's body burden ([2]; Fish #1): 0.05
- Contribution of Mucus to the fish's body burden ([2]; Fish #1): 0.11
- Contribution of Other tissue (all apart from blood, liver, gills and skin; muscle concentration assumed) to body burden ([2]; Fish #1): 0.36
- Contribution of Skin to the fish's body burden ([2]; Fish #1): 0.17
- Contribution of Blood to the fish's body burden ([2]; Fish #2): 0.031
- Contribution of Gills to the fish's body burden ([2]; Fish #2): 0.26
- Contribution of Liver to the fish's body burden ([2]; Fish #2): 0.09
- Contribution of Mucus to the fish's body burden ([2]; Fish #2): 0.09
- Contribution of Other tissue (all apart from blood, liver, gills and skin; muscle concentration assumed) to body burden ([2]; Fish #2): 0.29
- Contribution of Skin to the fish's body burden ([2]; Fish #2): 0.24
- Contribution of Blood to the fish's body burden ([2]; Fish #3): 0.038
- Contribution of Liver to the fish's body burden ([2]; Fish #3): 0.11
- Contribution of Mucus to the fish's body burden ([2]; Fish #3): 0.07
- Contribution of Other tissue (all apart from blood, liver, gills and skin; muscle concentration assumed) to body burden ([2]; Fish #3): 0.31
- Contribution of Skin to the fish's body burden ([2]; Fish #3): 0.22
- Contribution of Blood to the fish's body burden ([2]; Fish #4): 0.023
- Contribution of Gills to the fish's body burden ([2]; Fish #4): 0.22
- Contribution of Liver to the fish's body burden ([2]; Fish #4): 0.21
- Contribution of Mucus to the fish's body burden ([2]; Fish #4): 0.07
- Contribution of Other tissue (all apart from blood, liver, gills and skin; muscle concentration assumed) to body burden ([2]; Fish #4): 0.32
- Contribution of Skin to the fish's body burden ([2]; Fish #4): 0.17
- Contribution of Blood to the fish's body burden ([2]; Fish #5): 0.025
- Contribution of Gills to the fish's body burden ([2]; Fish #5): 0.30
- Contribution of Liver to the fish's body burden ([2]; Fish #5): 0.07
- Contribution of Mucus to the fish's body burden ([2]; Fish #5): 0.09
- Contribution of Other tissue (all apart from blood, liver, gills and skin; muscle concentration assumed) to body burden ([2]; Fish #5): 0.31
- Contribution of Skin to the fish's body burden ([2]; Fish #5): 0.21
- Contribution of Blood to the fish's body burden ([2]; Fish #6): 0.042
- Contribution of Gills to the fish's body burden ([2]; Fish #6): 0.24
- Contribution of Liver to the fish's body burden ([2]; Fish #6): 0.06
- Contribution of Mucus to the fish's body burden ([2]; Fish #6): 0.11
- Contribution of Other tissue (all apart from blood, liver, gills and skin; muscle concentration assumed) to body burden ([2]; Fish #6): 0.29
- Contribution of Skin to the fish's body burden ([2]; Fish #6): 0.25
- Contribution of Blood to the fish's body burden ([2]; Mean): 0.033
- Contribution of Gills to the fish's body burden ([2]; Mean): 0.26
- Contribution of Liver to the fish's body burden ([2]; Mean): 0.10
- Contribution of Mucus to the fish's body burden ([2]; Mean): 0.09
- Contribution of Other tissue (all apart from blood, liver, gills and skin; muscle concentration assumed) to body burden ([2]; Mean): 0.31
- Contribution of Skin to the fish's body burden ([2]; Mean): 0.21
- % contribution to body burden, Gills [2]: 26%
- % contribution to body burden, Mucus [2]: 9%
- % contribution to body burden, Liver [2]: 10%
- % contribution to body burden, Skin [2]: 21%
- % contribution to body burden, Muscle [2]: 31%
